Test results published in US20240208988A1, “Alstonine Derivatives and Salts Thereof” (priority 2021, published 2024).
Entries after “also recorded” stand apart in the source; their conditions may differ. Structures can show the parent of a compound that is named as a salt.

Experiments:
Zebrafish (Danio rerio) [1] = test: Open tank test in zebrafish exposed to MK-801; type: in vivo; conditions: for total distance in the open tank test: FIG. 7; for absolute turn angle in the open tank test: FIG. 8; for number of clockwise rotations in the open tank test: FIG. 9; for time spent immobile in the open tank test: for pretreatments: effect on the MK-801-induced increase, FIG. 10; for Open Tank Test: Absolute turn angle / Open Tank Test: Time immobile / Open Tank Test: Clockwise rotations / Open Tank Test: Total distance: immediately after social interaction test, 10 min; for Open Tank Test: Clockwise rotations / Open Tank Test: Total distance: bracket = kind of effect and concentration (mg/L)
Procedure: (§1) Here, the ability of alstonine salts to reverse schizophrenia-like symptoms produced by MK-801 in zebrafish was evaluated. The atypical antipsychotic olanzapine was used as a comparison.
(§2) Experiments were performed using male and female (50:50 ratio) short-fin wild-type zebrafish (4-month-old, 300-500 mg). Adult animals were obtained from a local commercial supplier (Delphis, RS, Brazil). The animals were maintained at Instituto de Ciências Básicas de Saúde in a light/dark cycle of 14/10 h with lights on at 7:00 a.m. for at least two weeks before tests. Fish were kept in 40-L (30×46×33 cm) unenriched glass tanks with non-chlorinated water at a maximum density of five animals per liter. Tank water satisfied the controlled conditions required for zebrafish (26±2° C.; pH 7.0±0.3; dissolved oxygen at 7.0±0.4 mg/L; total ammonia at <0.01 mg/L; total hardness at 5.8 mg/L; alkalinity at 22 mg/L CaCO3; conductivity of 1,500-1,600 μS/cm) and was constantly filtered by mechanical, biological, and chemical filtration systems. Food was provided twice a day as commercial flake food (Poytara®, SP, Brazil) plus brine shrimp (Artemia salina). The sex of the animals was confirmed after euthanasia by dissecting and analyzing the gonads. For all experiments, no sex effects were observed, so data was pooled together. Animals were euthanized by hypothermic shock according to the AVMA Guidelines for the Euthanasia of Animals (Leary and Johnson, 2020).
(§3) Olanzapine and MK-801 (dizocilpine) were purchased from Sigma-Aldrich (St. Louis, MO, USA). Alstonine hydrochloride and alstonine hydrobromide were prepared as described herein. MK-801 and either olanzapine or alstonine salt were dissolved in distilled water; alstonine salt stock solutions were sonicated in an ultrasonic bath. MK-801 solutions were freshly prepared, while alstonine salt stock solutions were kept refrigerated for up to five days. Exposure solutions were renovated halfway through the experiment, with a maximum of four fish exposed to the same solution.
(§4) Different sets of animals were used for each experiment, totaling 240 zebrafish in the study (plus 80 zebrafish serving as stimulus animals). Animals were individually exposed to water, olanzapine, or alstonine salt solutions at 2.5, 5, or 10 mg/L in 500-mL beakers containing 200-mL solution for 20 min. These concentrations were extrapolated from mice studies. Fish were then transferred to another beaker containing either water or MK-801 at 5 μM and remained there for another 20 minutes.
The protocol for the open tank test followed the method described by Benvenutti et al. (2021) Journal of Neuroscience Research 00: 1-16. Immediately after the social interaction test, animals were placed in the center of the open tank arena and recorded for 10 min. The apparatus consisted of a white circular arena (24 cm in diameter and 8 cm in height, 2 cm water level). The apparatus format and the acquisition of videos from the top view allows the evaluation of locomotor parameters related to stereotypic behavior (circular movements and absolute turn angle). The water was changed between every animal. The following outcomes were automatically scored using ANY-Maze software (Stoelting Co., Wood Dale, IL, USA): total distance traveled, absolute turn angle, number of clockwise rotations, and immobility time.
GraphPad Prism 8 (version 8.4.3) for macOS was used to run the statistical analyses and plot the results. No animals were excluded, except for two data points in the open tank test due to a failure in video acquisition. Data were analyzed by two-way ANOVA, with alstonine salt or olanzapine pretreatment (Drug_1) and MK-801 treatment (Drug_2) as the main factors. Bonferroni post hoc test was applied as appropriate. The significant level was set at p<0.05. Data were expressed as mean standard deviation.

Zebrafish (Danio rerio) [2] = test: Social interaction test in zebrafish exposed to MK-801; type: in vivo; conditions: for Social Interaction Test: Time immobile: 20 min drug pre-exposure, then 20 min MK-801 5 μM or water; for total distance traveled in the social interaction test / time spent in the interaction zone (social interaction), effect of the substance itself: main effect; for total distance traveled in the social interaction test: FIG. 3; for time spent in the interaction zone (social interaction), effect of the substance itself: two-way ANOVA, Bonferroni post hoc; for number of crossings in the social interaction test: main or interaction effect with MK-801, FIG. 4; for pre-exposure concentration at which MK-801 increased the number of crossings (Bonferroni post hoc): social interaction test, FIG. 4
Procedure: as §1, §2, §3, §4
The protocol for the social interaction test in zebrafish followed the method described by Benvenutti et al. (2021) Journal of Neuroscience Research 00: 1-16. After exposure, animals were placed for 7 min in a tank (30×10×15 cm) flanked by two identical tanks (15×10×13 cm) either empty (neutral stimulus) or containing 10 unknown zebrafish (social stimulus). All three tanks were filled with water in standard conditions at a level of 10 cm. The position of the social stimulus (right or left) was counterbalanced throughout the tests. The water in the test tanks was changed between every animal. To assess social behavior, the test apparatus was virtually divided into three vertical zones (interaction, middle, and neutral). Animals were habituated to the apparatus for 2 min and then analyzed for the last 5 min. Videos were recorded from the front view and time spent in the interaction zone was quantified as a proxy for social interaction. Additionally, total distance traveled, number of crossings between the vertical zones of the tank and immobility time were quantified as secondary locomotor parameters. All outcomes were automatically scored using ANY-Maze software (Stoelting Co., Wood Dale, IL, USA).
GraphPad Prism 8 (version 8.4.3) for macOS was used to run the statistical analyses and plot the results. No animals were excluded, except for two data points in the open tank test due to a failure in video acquisition. […]

rodents = conditions: acute administration; literature data; cited from earlier work
mice = conditions: cited from earlier work
dopamine (DA) uptake = conditions: mouse striatal synaptosomes (Linck et al. 2015); cited from earlier work
[3] = test system: D1, D2, and 5-HT2A receptors; conditions: cortex membranes; preliminary binding studies (Costa-Campos et al., 1998); cited from earlier work

Row | SMILES | total distance in the open tank test (Zebrafish (Danio rerio) [1]) | absolute turn angle in the open tank test (Zebrafish (Danio rerio) [1]) | number of clockwise rotations in the open tank test (Zebrafish (Danio rerio) [1]) | time spent immobile in the open tank test (Zebrafish (Danio rerio) [1]) | Open Tank Test: Absolute turn angle (Zebrafish (Danio rerio) [1]) | Open Tank Test: Time immobile (Zebrafish (Danio rerio) [1]) | Open Tank Test: Clockwise rotations (Zebrafish (Danio rerio) [1]) | Open Tank Test: Total distance (Zebrafish (Danio rerio) [1]) | Social Interaction Test: Time immobile (Zebrafish (Danio rerio) [2]) | total distance traveled in the social interaction test (Zebrafish (Danio rerio) [2]) | number of crossings in the social interaction test (Zebrafish (Danio rerio) [2]) | pre-exposure concentration at which MK-801 increased the number of crossings (Bonferroni post hoc) (Zebrafish (Danio rerio) [2]) [mg/L] | further results
1 | C[C@]12N[C@H](Cc3ccccc31)c1ccccc12 [MK-801, dizocilpine, reference compound] | decreased the total distance relative to controls | decreased the absolute turn angle relative to controls | decreased the number of clockwise rotations relative to controls | increased the time spent immobile | ↓ | ↑ | ↓ | ↓ | = | increased the total distance traveled relative to controls | had no effect on the number of crossings |  | Social Interaction Test: Crossings (Zebrafish (Danio rerio) [2]; Ctrl vs. MK within pretreatment level, bracket = concentration (mg/L)): =; time spent immobile in the social interaction test (Zebrafish (Danio rerio) [2]; FIG. 5): tended to decrease the time spent immobile; time spent in the interaction zone (social interaction), effect of the substance itself (Zebrafish (Danio rerio) [2]; FIG. 2): decreased social preference
2 | CCN1CCCC1CNC(=O)c1cc(S(N)(=O)=O)ccc1OC (stereo not shown) [Sulpiride] |  |  |  |  |  |  |  |  |  |  |  |  | prevention of social interaction deficits caused by MK-801 (rodents): acutely prevents the deficits caused by MK-801
3 | COC(=O)C1=CO[C@@H](C)[C@H]2C[n+]3ccc4c([nH]c5ccccc54)c3C[C@H]12.[Br-] [alstonine hydrobromide] | did not have an effect | no main effects for Drug_1 or interaction effects were observed | did not have a main effect or an interaction effect | did not have an effect | N.E.^1 | N.E.^1 | N.E.^1 | N.E.^1 |  | had no such effect | significant interaction | 10 | time spent immobile in the social interaction test (Zebrafish (Danio rerio) [2]; FIG. 5, hydrobromide): significant interaction; time spent immobile in the social interaction test (Zebrafish (Danio rerio) [2]; FIG. 5, listed as alstonine bromide, hydrobromide): reduced the effects of MK-801 at the highest concentrations tested; time spent in the interaction zone (social interaction), effect of the substance itself (Zebrafish (Danio rerio) [2]; FIG. 2, listed as alstonine bromide, hydrobromide): none of the concentrations decreased social isolation; also recorded: did not; prevention of the MK-801-induced decrease of social interaction time (Zebrafish (Danio rerio) [2]; pretreatment 20 min before MK-801 5 μM, FIG. 2): did not prevent the effects of MK-801
4 | COC(=O)C1=CO[C@@H](C)[C@@H]2Cn3ccc4c5ccccc5nc-4c3C[C@H]12 [alstonine hydrochloride] | did not have an effect | no main effects for Drug_1 or interaction effects were observed | did not have a main effect or an interaction effect | did not have an effect | N.E.^1 | N.E.^1 | N.E.^1 | N.E.^1 | N.E.^1 | had no such effect | significant interaction | 5 | time spent in the interaction zone (social interaction), effect of the substance itself (Zebrafish (Danio rerio) [2]; FIG. 2, hydrochloride): animals exposed to 5 and 10 mg/L alstonine hydrochloride spent less time in the interaction zone as compared to controls; also recorded: decreased the interaction time
5 | COC(=O)C1=CO[C@@H](C)[C@@H]2Cn3ccc4c5ccccc5nc-4c3C[C@H]12 [alstonine] |  |  |  |  |  |  |  |  |  |  |  |  | antipsychotic profile in mice models (mice; 0.5-1.0 mg/kg ip): antipsychotic properties; time to significant effects after intraperitoneal administration (mice; mice, ip): ≤ 30 min; effect on DA uptake (dopamine (DA) uptake): increasing DA uptake; effect on [3H]SCH23390 or [3H]Spiperone binding [3]: does not affect
6 | Cc1cc2c(s1)Nc1ccccc1N=C2N1CCN(C)CC1 [olanzapine, reference compound] |  |  |  |  | N.E.^1 |  |  |  | N.E.^1 |  |  |  | 
